# From patent US20020119136A1, “Antimicrobial peroxidase compositions” (Novozymes A/S, priority 1996, published 2002)
# B1: rCIP: Coprinus cinereus, IFO 8371, recombinant peroxidase (rCIP) available from Novo Nordisk A/S (protein, UniProt P28314 21-363, looked up)
# Peroxidase: QGPGGGGSVTCPGGQSTSNSQCCVWFDVLDDLQTNFYQGSKCESPVRKILRIVFHDAIGFSPALTAAGQFGGGGADGSIIAHSNIELAFPANGGLTDTVEALRAVGINHGVSFGDLIQFATAVGMSNCPGSPRLEFLTGRSNSSQPSPPSLIPGPGNTVTAILDRMGDAGFSPDEVVDLLAAHSLASQEGLNSAIFRSPLDSTPQVFDTQFYIETLLKGTTQPGPSLGFAEELSPFPGEFRMRSDALLARDSRTACRWQSMTSSNEVMGQRYRAAMAKMSVLGFDRNALTDCSDVIPSAVSNNAAPVIPGGLTVDDIEVSCPSEPFPEIATASGPLPSLAPAP
# How the values were obtained:
# [1] = tested on: Pseudomonas aeruginosa ATCC 10146; test: Antibacterial activity of rCIP and KI against P. aeruginosa (Malthus, 2^3 factorial design); assay type: cell-based; conditions: components present at rCIP 0.5 POXU/ml, H2O2 0.5 mM, KI 0.5 mM; 15 min, 40 C, pH 6.0; approx 10^7 cfu/ml; untreated 1.7*10^7
# Procedure: (§1) The antibacterial activity of rCIP was tested in phosphate buffer (pH 6.0) against Pseudomonas aeruginosa ATCC 10146 and Staphylococcus aureus ATCC 25923 with potassium iodide as electron donor, and hydrogen peroxide was added as electron acceptor. The cells (approximately 10^7 cfu/ml) were incubated with enzyme for 15 min at 40?C., and the experiment was carried out using a 2^3 factorial design reproduced two times. The bactericidal activity was determined by incubation in Malthus.
# [2] = tested on: Staphylococcus aureus ATCC 25923; test: Antibacterial activity of rCIP and KI against S. aureus (Malthus, 2^3 factorial design); assay type: cell-based; conditions: components present at rCIP 0.5 POXU/ml, H2O2 0.5 mM, KI 0.5 mM; 15 min, 40 C, pH 6.0; untreated 2.9*10^8
# Procedure: as §1
# P. fluorescens = conditions: rCIP 3 POXU/ml, enhancing agent 5 mM, 15 min, pH 6.0, 40 C; for bactericidal activity of rCIP with the enhancing agent: glucose oxidase/glucose or 5 mM H2O2, 10^4 cfu/ml
# Procedure: In order to avoid interference with substrate components, the experiment was carried out in a buffer instead of in a growth substrate.
# The bactericidal activity was determined by plate counting and by incubation in Malthus. The detection times measured by the Malthus instrument were converted to cfu/ml by a standard curve.
# Indirect Malthus measurements were used when enumerating total survival cells (Malthus Flexi M2060, Malthus Instrument Limited). 3 ml of growth medium was transferred to the outer chamber of the indirect Malthus cells, and 0.5 ml of sterile KOH (0.1 M) was transferred to the inner chamber. The cell suspensions were after enzyme treatment transferred to the outer chamber of the Malthus cell. As cells are growing in the outer chamber they produce CO2 which will dissolve in the KOH in the inner chamber and thereby change the conductance of the KOH. The amount of CO2 formed by the respiring cells surviving the enzyme treatment was used for estimating the number of viable cells. When the conductance change is measurable by the Malthus, a detection time (dt) will be recorded. The dt's were converted to colony counts by use of a calibration curve relating cfu/ml to dt (FIG. 1).
molecule,measurement,setting,value
"OO [H2O2, hydrogen peroxide]",survivors,[1],1.2*10^7 cfu/ml
same,survivors,[2],1.3*10^8 cfu/ml
"[I-].[K+] [KI, potassium iodide]",survivors,[1],2.1*10^7 cfu/ml
same,survivors,[2],2.0*10^8 cfu/ml
same,bactericidal activity,"P. fluorescens; H2O2 source, by plate counts and Malthus",100%
same,bactericidal activity of rCIP with the enhancing agent,P. fluorescens,statistical significant bactericidal activity
"N#C[S-].[Na+] [NaSCN, sodium thiocyanate]",bactericidal activity of rCIP with the enhancing agent,P. fluorescens,statistical significant bactericidal activity
"O=C(O)CCN1c2ccccc2Sc2ccccc21 [PPT, 10-phenothiazine propionic acid]",bactericidal activity of rCIP with the enhancing agent,P. fluorescens,slight bactericidal activity
B1,survivors,[1],2.6*10^7 cfu/ml
same,survivors,[2],1.6*10^8 cfu/ml
